Data on 34 molecules can be found in patent US20030232868A1, “Cyclic carboxylic acids as integrin antagonists” (priority 2000, published 2003).

The test system of data set [1] is adhesion of Ramos cells to VCAM-1. In words: Adhesion of Ramos cells to immobilized VCAM-1 (domains 1-3) (Ramos—VCAM-1 assay). It is filed as cell-based. The note with it: Homo sapiens, Ramos, 1 h. The text has this:
(§1) In Vitro Assay: Adhesion of Jurkat/Ramos Cells to Immobilized VCAM-1 (Domains 1-3)
(§2) Preparation of VCAM-1 (Extracellular Domains 1-3)
(§3) Complementary DNA (cDNA) encoding 7 domain form of VCAM-1 (GenBank accession #M60335) was obtained using Rapid-Screen™ cDNA library panels (OriGene Technologies, Inc) at Takara Gene Analysis Center (Shiga, Japan). The primers used were 5′-CCAAGGCAGAGTACGCAAAC-3′ (sense) and 5′-TGGCAGGTATTATTAAGGAG-3′ (antisense). PCR amplification of the 3 domain VCAM-1 cDNA was perform using Pfu DNA polymerase (Stratagene) with the following sets of primers: (U-VCAMd1-3) 5′-CCATATGGTACCTGATCAATTTAAAATCGAGACCACCCCAGAA-3′; (L-VCAMd1-3) 5′-CCATATAGCAATCCTAGGTCCAGGGGAGATCTCAACAGTAAA-3′. PCR cycle was 94° C. for 45 sec. 55° C. for 45 sec, 72° C. for 2 min, repeating 15 cycles. After the purification of the PCR product, the fragment was digested with KpnI-AvrII. The digested fragment was ligated into pBluescript IISK(−) (Strategene), which was linearized by digesting with KpnI-XhoI. The ligation was followed by transformation to a Dam/Dcm methylase-free E. coli strain SCS110 (Strategene) to create the donor plasmid pHH7. To direct VCAM-1 molecule into the insect cell secretory pathway, the VCAM-1 coding sequence was fused to signal peptide sequence of honeybee melittin. The resulting melittin-VCAM fusion was placed in correct orientation to the baculovirus polyhedrin promoter. Baculovirus transfer vector containing first 3-domain form VCAM-1 (pH 10) was constructed by ligation of 0.9 kb fragment from AvrII/Klenow/BclI digests of pH 7 into SalI/Klenow/BamHI digests of pMelBacB Invitrogen). Recombinant baculovirus was generated by using Bac-N-Blue™ Transfection kit (Invitrogen) according to the manufacture's instruction. The recombinant virus was amplified by infection to High-Five™ insect cells for 5-6 days, and virus titer was determined by plaque assay.
(§4) High-Five™ insect cells were pelleted in a 225 ml conical tube by centrifugation at 1000 rpm for 5 min. After discarding the supernatant, the pellet was resuspended in 1.5×10^9 pfu (MOI=5) of high-titer virus solution, followed by incubation for 1.5 hours at room temperature. The cells were pelleted again and washed once in fresh Express Five™ serum free medium. The cells were pelleted again and finally, resuspended in 200 ml of fresh Express Five TM medium, transferred to a 1,000 ml shaker flask, and incubated in a shaker at 27° C., 130 rpm, for 48 hours before the culture supernatant was collected. The purification of 3-domain form of VCAM-1 from the culture supernatant was performed by one-step anion exchange chromatography. Protein concentration was determined by using Coomassie protein assay reagent (Pierce) according to the manufacture's instruction.
(§5) Preparation of VCAM-1 Coated Microtiter Plates
(§6) Recombinant human VCAM-1 (extracellular domains 1-3) was dissolved at 1.0 μg/1 ml in PBS. Each well of the microtiter plates (Nalge Nunc International, Fluoro-nunc Cert, 437958) was coated with 100 μl of substrate or for background control with buffer alone for 15 hours at 4 C. After discarding the substrate solution, the wells were blocked using 150 μl per well of block solution Kirkegaard Perry Laboratories, 50-61-01) for 90 minutes. The plate was washed with wash buffer containing 24 mM Tris-HCl (pH 7.4), 137 mM NaCl, […] and 2 MM MnCl2 just before addition of the assay.
In Vitro Assay using Ramos Cells
Preparation of Fluorescence Labeled Ramos Cells:
Ramos cells (American Type Culture Collection, Clone CRL-1596) were cultured in RPMI 1640 medium (Nikken Bio Medical Laboratory, CM1101) supplemented with 10% fetal bovine serum (Hyclone, A-1119-L), 100 U/ml penicilin (Gibco BRL, 15140-122) and 100 μg/ml streptomycin (Gibco BRL, 15140-122) in a humidified incubator at 37° C. with 5% CO2. […]

Data set [2] relates to adhesion of Jurkat cells to VCAM-1. In words: Adhesion of Jurkat cells to immobilized VCAM-1 (domains 1-3) (Jurkat—VCAM-1 assay). In kind it is cell-based, human.
Excerpt: as §1, §2, §3, §4, §5, §6
In Vitro Assay using Jurkat Cells
Preparation of Fluorescence Labeled Jurkat Cells:
Jurkat cells (American Type Culture Collection, Clone E6-1, ATCC TIB-152) were cultured in RPM 1640 medium (Nikken Bio Medical Laboratory, CM1101) supplemented with 10% fetal bovine serum (Hyclone, A-1119-L), 100 U/ml penicilin (Gibco BRL, 15140-122) and 100 μg/ml streptomycin (Gibco BRL, 15140-122) in a humidified incubator at 37° C. with 5% CO2. […]

Consider `COC(=O)c1ccccc1NC(=O)[C@H](CC(C)C)NC(=O)Cc1ccc(NC(=O)Nc2ccccc2C)cc1` [Example 15], for which the melting point was found to be 170 °C.

With `COC(=O)c1cccc(NC(=O)[C@H](CC(C)C)NC(=O)Cc2ccc(NC(=O)Nc3ccccc3C)cc2)c1` [Example 16], the melting point stood at 220 °C.

For the molecule `COC(=O)c1ccc(NC(=O)[C@H](CC(C)C)NC(=O)Cc2ccc(NC(=O)Nc3ccccc3C)cc2)cc1` [Example 17, Methyl 4-([({4-[(2-toluidinocarbonyl)amino]phenyl}acetyl)L-leucin]amino)benzoate], the melting point was 250 to 252 °C.

The molecule `COC(=O)Cc1ccccc1NC(=O)[C@H](CC(C)C)NC(=O)Cc1ccc(NC(=O)Nc2ccccc2C)cc1` [Example 18] showed a melting point of 218 °C.

`COC(=O)Cc1cccc(NC(=O)[C@H](CC(C)C)NC(=O)Cc2ccc(NC(=O)Nc3ccccc3C)cc2)c1` [Example 19] showed a melting point of 200 °C.

`COC(=O)Cc1ccc(NC(=O)[C@H](CC(C)C)NC(=O)Cc2ccc(NC(=O)Nc3ccccc3C)cc2)cc1` [Example 20] showed a melting point of 222 °C.

On to `CCOC(=O)c1ccc(NC(=O)[C@H](CC(C)C)NC(=O)Cc2ccc(NC(=O)Nc3ccccc3C)cc2)c(Cl)c1` [Example 21], for which the melting point is 163 to 165 °C.

For `CCOC(=O)c1ccc(NC(=O)[C@H](CC(C)C)NC(=O)Cc2ccc(NC(=O)Nc3ccccc3C)cc2)c(OC)c1` [Example 22], the melting point lay within 139 to 141 °C.

`COC(=O)c1ccc(NC(=O)[C@H](CC(C)C)NC(=O)Cc2ccc(NC(=O)Nc3ccccc3C)cc2)cc1Nc1ccccc1` [Example 24]: the melting point was in the range of 205 to 206 °C.

Turning to `COC(=O)c1ccc(NC(=O)[C@H](CC(C)C)NC(=O)Cc2ccc(NC(=O)Nc3ccccc3C)cc2)cc1Oc1ccccc1` [Example 25], the melting point is 191 to 195 °C.

`COC(=O)c1cc(Cl)c(NC(=O)[C@H](CC(C)C)NC(=O)Cc2ccc(NC(=O)Nc3ccccc3C)cc2)cc1Cl` [Example 26]: the melting point was in the range of 204 to 205 °C.

Turning to `Cc1ccccc1NC(=O)Nc1ccc(CC(=O)N[C@@H](CC(C)C)C(=O)Nc2ccc(-c3nnn[nH]3)cc2)cc1` [Example 27], the melting point was in the range of 255 to 257 °C. The half-inhibitory concentration (IC50) in data set [1] fell in the range of 2000 to 10000 nM.

With `CCOC(=O)C(c1ccc(NC(=O)[C@H](CC(C)C)NC(=O)Cc2ccc(NC(=O)Nc3ccccc3C)cc2)cc1)C1CCCC1` (some centres unmarked) [Example 30], the melting point lay within 186 to 189 °C.

On to `CCOC(=O)Cc1csc(N(C)C(=O)[C@H](CC(C)C)NC(=O)Cc2ccc(NC(=O)Nc3ccccc3C)cc2)n1` [Example 33], for which the melting point was in the range of 125 to 130 °C.

With `Cc1ccccc1NC(=O)Nc1ccc(CC(=O)N[C@@H](CCCCNC(=O)OCc2ccccc2)C(=O)Nc2ccc(C(=O)OCc3ccccc3)cc2)cc1` [Example 35], the melting point is 188 to 189 °C.

Turning to `COCCCN(CC(=O)Nc1ccc(C(=O)OC)cc1)C(=O)Cc1ccc(NC(=O)Nc2ccccc2C)cc1` [Example 36], the melting point was 197 to 198 °C.

The molecule `Cc1ccccc1NC(=O)Nc1ccc(CC(=O)N[C@@H](CC(C)C)C(=O)Nc2ccccc2C(=O)O)cc1` [Example 39] showed a melting point of 190 °C. The IC50 in data set [2] (Homo sapiens, Jurkat, 1 h) was > 10000 nM.

Take `Cc1ccccc1NC(=O)Nc1ccc(CC(=O)N[C@@H](CC(C)C)C(=O)Nc2cccc(C(=O)O)c2)cc1` [Example 40]: the melting point worked out at 220 °C. In addition, in data set [2] (Homo sapiens, Jurkat, 1 h), the half-maximal inhibitory concentration (IC50) was > 10000 nM.

The molecule `Cc1ccccc1NC(=O)Nc1ccc(CC(=O)N[C@@H](CC(C)C)C(=O)Nc2ccc(C(=O)O)cc2)cc1` [Example 41] yielded a melting point of 219 to 223 °C. Besides, the IC50 in data set [2] (Homo sapiens, Jurkat, 1 h) is < 500 nM.

Turning to `Cc1ccccc1NC(=O)Nc1ccc(CC(=O)N[C@@H](CC(C)C)C(=O)Nc2ccccc2CC(=O)O)cc1` [Example 42], the melting point lay within 186 to 190 °C. Also, the IC50 in data set [2] (Homo sapiens, Jurkat, 1 h) was > 10000 nM.

In turn, `Cc1ccccc1NC(=O)Nc1ccc(CC(=O)N[C@@H](CC(C)C)C(=O)Nc2cccc(CC(=O)O)c2)cc1` [Example 43] yielded a melting point of 178 to 181 °C. Moreover, in data set [2] (Homo sapiens, Jurkat, 1 h), the IC50 was 500 to 2000 nM.

On to `Cc1ccccc1NC(=O)Nc1ccc(CC(=O)N[C@@H](CC(C)C)C(=O)Nc2ccc(CC(=O)O)cc2)cc1` [Example 44], for which the melting point was determined as 206 °C. The molecule also displayed a 50% inhibitory concentration (IC50) in data set [2] (Homo sapiens, Jurkat, 1 h) of 2000 to 10000 nM.

`Cc1ccccc1NC(=O)Nc1ccc(CC(=O)N[C@@H](CC(C)C)C(=O)Nc2ccc(C(=O)O)cc2Cl)cc1` [Example 45] registered a melting point of 154 to 158 °C. Also, in data set [2] (Cell Type Jurkat, adhesion to VCAM-1 coated plates, 1 hour at 37 C, IC50 value ranges), the half-inhibitory concentration (IC50) result is on record as “A-B”.

`COc1cc(C(=O)O)ccc1NC(=O)[C@H](CC(C)C)NC(=O)Cc1ccc(NC(=O)Nc2ccccc2C)cc1` [Example 46] returned a melting point of 138 to 142 °C. For the same molecule, the IC50 in data set [1] is > 10000 nM.

`Cc1ccccc1NC(=O)Nc1ccc(CC(=O)N[C@@H](CC(C)C)C(=O)Nc2ccc(C(=O)O)c(Cl)c2)cc1` [Example 47] registered a melting point of 178 to 180 °C. In addition, the IC50 in data set [1] is < 500 nM.

`Cc1ccccc1NC(=O)Nc1ccc(CC(=O)N[C@@H](CC(C)C)C(=O)Nc2ccc(C(=O)O)c(Nc3ccccc3)c2)cc1` [Example 48]: the melting point was 164 to 169 °C. In addition, in data set [1], the IC50 is < 500 nM.

The molecule `Cc1ccccc1NC(=O)Nc1ccc(CC(=O)N[C@@H](CC(C)C)C(=O)Nc2ccc(C(=O)O)c(Oc3ccccc3)c2)cc1` [Example 49] gave a melting point of 158 to 160 °C. Further, the IC50 in data set [1] was < 500 nM.

On to `Cc1ccccc1NC(=O)Nc1ccc(CC(=O)N[C@@H](CC(C)C)C(=O)N2CCCc3cc(C(=O)O)ccc32)cc1` [Example 52], for which the IC50 in data set [1] was 2000 to 10000 nM.

On to `Cc1ccccc1NC(=O)Nc1ccc(CC(=O)N[C@@H](CC(C)C)C(=O)Nc2ccc(C(C(=O)O)C3CCCC3)cc2)cc1` (some centres unmarked) [Example 53], for which the melting point was in the range of 206 to 208 °C. In addition, the IC50 in data set [2] (Homo sapiens, Jurkat, 1 h) lay within 2000 to 10000 nM.

`Cc1ccccc1NC(=O)Nc1ccc(CC(=O)N[C@@H](CC(C)C)C(=O)Nc2nc(CC(=O)O)cs2)cc1` [Example 54] had a melting point of 178 to 180 °C. The IC50 in data set [2] (Homo sapiens, Jurkat, 1 h) is 2000 to 10000 nM.

For the molecule `Cc1ccccc1NC(=O)Nc1ccc(CC(=O)N[C@@H](CC(C)C)C(=O)Nc2nnc(CC(=O)O)s2)cc1` [Example 55], the melting point lay within 187 to 189 °C. This molecule had an IC50 in data set [2] (Homo sapiens, Jurkat, 1 h) of 2000 to 10000 nM.

Take `Cc1ccccc1NC(=O)Nc1ccc(CC(=O)N[C@@H](CC(C)C)C(=O)Nc2ccc3[nH]c(C(=O)O)cc3c2)cc1` [Example 57]: in data set [2] (Homo sapiens, Jurkat, 1 h), the IC50 was > 10000 nM.

`Cc1ccccc1NC(=O)Nc1ccc(CC(=O)N[C@@H](CC(C)C)C(=O)NC2CCC(C(=O)O)CC2)cc1` (some centres unmarked) [Example 60]: the melting point is 175 °C (dec.). In data set [2] (Homo sapiens, Jurkat, 1 h), this molecule displayed an IC50 of 2000 to 10000 nM.

`Cc1ccccc1NC(=O)Nc1ccc(CC(=O)N[C@@H](CC(C)C)C(=O)NC2CCCCC2C(=O)O)cc1` (some centres unmarked) [Example 61]: the IC50 in data set [1] lay within 2000 to 10000 nM.

For orientation: melting point means the temperature, or range, at which the solid turns liquid. In general, IC50 refers to the concentration that inhibits the measured activity by half. Read a high IC50 as weaker potency.
